Entries after “also recorded” stand apart in the source; their conditions may differ.
Key:
[1] = test system: obese ZSF1 rats; set-up: method as in Bilan et al., 2011; conditions: 8-week old obese ZSF1 rats, enalapril 60 mg/kg/day in drinking water for 24 weeks; ref Bilan et al., 2011; cited from earlier work
[2] = test system: obese ZSF1 rats; test: ZSF1 rat model of metabolic syndrome and diabetic nephropathy; assay type: in vivo
Experimental: Lean (n=8, 370–420 g, 15 weeks) and obese (n=32, 500–630 g, 15 weeks) male ZSF1 rats were studied. Rats were treated with enalapril to reflect standard of care drug treatment for patients with diabetic kidney disease. Dose modeling based on allometric scaling relationships estimated that a 10 mg/day enalapril dose in humans (within usual dose range of 10–40 mg based on prescribing information) corresponds to 1 mg/kg/day in rats ([Nair and Jacob, 2016]). To measure hemodynamics in freely moving animals, ZSF1 obese rats were implanted with telemetry transmitters (HD-S10, Data Sciences International) at 9–10 weeks of age, as described above.
The study included a 10-day pretreatment period and a 10-week treatment period. There were five groups of rats in the study. The lean ZSF1 control group (lean control, n=8) and one obese group (obese control, n=8) were fed normal chow and drinking water throughout the 10-day pretreatment period and the 10-week treatment period. Three groups of obese rats were treated with enalapril in drinking water (equivalent to 3 mg/kg/day) throughout the 10-day pretreatment period and the 10-week treatment period. During the treatment period, these enalapril-treated obese rats were administered normal chow (ENP, n=8) or chow containing olinciguat targeting the dose of 10 mg/kg/day (ENP+OLI10, n=8) or 30 mg/kg/day (ENP+OLI30, n=8). Blood and 24-h urine samples were obtained from all animals at baseline (immediately prior to initiation of enalapril treatment), the end of the 10-day pretreatment period (Day 10) and at week 5 and week 10 of the treatment period. Plasma samples were obtained from all olinciguat-treated animals for measurement of olinciguat exposure at week 10. During week 9 of treatment, rats were fasted for 16 h overnight prior to determination of fasting blood glucose using the AlphaTRAK (Abbott) glucose monitoring system. Body weight was measured once every other week. At the end of the study, rats were anesthetized and perfused via the left ventricle with heparinized PBS (1 U/ml heparin) containing IBMX (1 mM). Organs were collected and weighed, and plasma was collected in EDTA tubes. For serum, blood was collected in serum separator tubes, maintained at room temperature for at least 30 min and centrifuged at 6,000 rpm for 10 min, and then stored at −80°C until analysis. Urine and serum samples were analyzed using the Randox Daytona Clinical Chemistry Analyzer (Randox, Kearneysville, WV) for urine protein, serum cholesterol and serum triglycerides. All measurements were performed in accordance with manufacturer's instructions.
For histology, one kidney from each rat was fixed in 10% formalin, then embedded in paraffin. Slides were prepared and stained with hematoxylin and eosin (H&E) and periodic-acid Schiff (PAS) for light microscopic analysis. Kidney sections were evaluated for the presence of glomerular pathology, tubular damage, interstitial inflammation, interstitial fibrosis, and vascular alterations. Severity-based scoring based on these evaluations was performed by a trained pathologist.
For the ZSF1 experiment, data are expressed as mean ± standard error of the mean (SEM).
In the ZSF1 study, change from baseline NT-proBNP, week 10 heart, kidney, and liver weight, urine volume, cholesterol, triglycerides, glucose, and renal histopathology sum score were analyzed by one-way ANOVA corrected for multiple comparisons using Tukey's method. Statistically significant differences vs the obese control and vs the ENP group are indicated in the results. MAP and UPE were analyzed by an ordinary two-way ANOVA with timepoint and treatment group as independent variables, followed by a Tukey's multiple comparisons test. Within each treatment group, significant differences vs baseline are indicated in the results. At week 10, statistically significant differences vs the obese control and vs the ENP control are also indicated in the results.

[3] = set-up: method as in Tobin et al., 2018; conditions: ref Tobin et al., 2018; cited from earlier work
[4] = test system: pulmonary artery smooth muscle from idiopathic pulmonary arterial hypertension (PAH) patients; set-up: method as in Yamamura et al., 2017; conditions: ref Yamamura et al., 2017, read-out: IC50, inhibition of proliferation; cited from earlier work
[5] = test system: vascular smooth muscle cells (VSMC) from rat aorta; test: Rat aorta vascular smooth muscle cell proliferation (3H-thymidine incorporation); assay type: cell-based; conditions: tadalafil alone at or below 10 µM; 5% FBS, 10 µM DETA
Experimental: We explored the concentration response of olinciguat, tadalafil, and olinciguat in the presence of 1 μM tadalafil on rat aorta vascular smooth muscle proliferation, Tadalafil was used because it is a once-daily PDE5 inhibitor that, like the three-times-daily PDE5 inhibitor sildenafil, is approved for treatment of PAH and ED. Vascular smooth muscle cells (VSMC) from rat aorta (Lonza, R-ASM-580) were plated into a 96-well plate at 15,000 cells per well in DMEM:F12 containing 20% FBS and GA-1000 ([Gentamicin, Amphotericin B], Lonza, CC-40863) for 24 h at 37°C. Medium was removed and cells were washed once with 100 μl DMEM:F12 before adding 100 μl of DMEM:F12 and incubating for 24 h to induce quiescence. Cells were then cultured for 24 h in DMEM:F12 supplemented with 5% FBS, in the presence of test articles (vehicle, olinciguat, tadalafil) with 10 µM DETA. In the last 6 h, 0.2 μCi of ^3H-thymidine (American Radiolabeled Chemicals, ART 0178A) was added to each well to measure DNA synthesis by thymidine incorporation. Cells were washed once with HBSS and then trypsinized and transferred into FB filter plates (Millipore, MADVNOB). A rapid-filtration technique using a filtration apparatus (Millipore, MAVM0960R) with vacuum aspiration was used to harvest and rinse labeled cells (6× with 0.2 ml of chilled water). The radioactivity bound to the filters was counted with 80 µl of liquid scintillant (PerkinElmer, UltraGold MV, 6013159) in a scintillation counter (Perkin Elmer Microbeta instrument).
In the vascular smooth muscle cell proliferation experiment, a comparison between the IC50's for olinciguat alone vs oliniciguat in the presence of 1 µM tadalafil was performed by a two-tailed t-test using Log EC50 best fit values and SEs determined from a four-parameter nonlinear curve fit, assuming n=60 degrees of freedom.

[6] = set-up: method as in Forgue et al., 2006; conditions: healthy volunteers, after 10 days of dosing at 20 mg QD; ref Forgue et al., 2006; read-out: Cmax plasma concentration; cited from earlier work
[7] = test system: pulmonary artery smooth muscle from healthy subjects; set-up: method as in Yamamura et al., 2017; conditions: ref Yamamura et al., 2017; cited from earlier work

For `CCOC(=O)[C@H](CCc1ccccc1)N[C@@H](C)C(=O)N1CCC[C@H]1C(=O)O` [ENP, reference compound], the “reduction in MAP” value [1] is listed as ~ 50 mmHg, the “MAP at Week 10” value ([2]; obese ZSF1, enalapril 3 mg/kg/day in drinking water, obese control 122 ± 1) is listed as 111 ± 1 mmHg and the fasting blood glucose ([2]; obese ZSF1, enalapril 3 mg/kg/day, week 9, obese control 279.4 ± 36.5) is listed as 276.5 ± 30.9 mg/dL. For the same compound, the “change from baseline NT-proBNP” value ([2]; obese ZSF1, enalapril 3 mg/kg/day, baseline to end of treatment, obese control +86 ± 22) was “+44 ± 28 pg/ml”, the total kidney weight ([2]; obese ZSF1, enalapril 3 mg/kg/day, obese control 9.7 ± 0.2, lean 7.4 ± 0.07) was 9.5 ± 0.3 g/kg BW and the “renal pathology sum score” value ([2]; obese ZSF1, enalapril 3 mg/kg/day, obese control 14.6 ± 0.2, p=0.025 vs obese control) was 12.2 ± 0.4. The liver weight ([2]; obese ZSF1, enalapril 3 mg/kg/day, obese control 72.0 ± 1.9) was 70.5 ± 1.1 g/kg BW, the “serum cholesterol at week 10” value ([2]; obese ZSF1, enalapril 3 mg/kg/day, obese control 428.6 ± 12.7) was 383 ± 9.8 mg/dL and the “serum triglycerides at week 10” value ([2]; obese ZSF1, enalapril 3 mg/kg/day, obese control 4913 ± 487.1) was 3850 ± 326.0 mg/dL. The “increase of proteinuria over 10-week treatment period” value ([2]; obese ZSF1, enalapril alone 3 mg/kg/day, obese controls 153%) was 168% and the “kidney weight, percent greater than in the lean control group” value ([2]; obese ZSF1 treated with enalapril) was 28%.
In the case of `OC(CNc1nc(-c2cc(-c3ccon3)n(Cc3ccccc3F)n2)ncc1F)(C(F)(F)F)C(F)(F)F` [praliciguat], the volume of distribution [3] is listed as 10.5 L/kg.
In the case of `CN1CC(=O)N2[C@H](c3ccc4c(c3)OCO4)c3[nH]c4ccccc4c3C[C@@H]2C1=O` [tadalafil], the IC50 [4] is given as 4.5 µM, the “inhibition of VSMC proliferation by tadalafil alone” value [5] is given as “did not inhibit vascular smooth muscle cell proliferation; also recorded: did not inhibit VSMC proliferation” and the Cmax [6] is given as 1000 nM. For the same compound, the effect on proliferation [7] was “no effect”.
